Assay results: article PMC7841342, “Elevated ABCB1 Expression Confers Acquired Resistance to Aurora Kinase Inhibitor GSK-1070916 in Cancer Cells” (Frontiers in Pharmacology, 2021)

Molecular target: ABCB1 (Homo sapiens, UniProt P08183)
Assay: biochemical

ABCB1, sequence (P08183 whole entry): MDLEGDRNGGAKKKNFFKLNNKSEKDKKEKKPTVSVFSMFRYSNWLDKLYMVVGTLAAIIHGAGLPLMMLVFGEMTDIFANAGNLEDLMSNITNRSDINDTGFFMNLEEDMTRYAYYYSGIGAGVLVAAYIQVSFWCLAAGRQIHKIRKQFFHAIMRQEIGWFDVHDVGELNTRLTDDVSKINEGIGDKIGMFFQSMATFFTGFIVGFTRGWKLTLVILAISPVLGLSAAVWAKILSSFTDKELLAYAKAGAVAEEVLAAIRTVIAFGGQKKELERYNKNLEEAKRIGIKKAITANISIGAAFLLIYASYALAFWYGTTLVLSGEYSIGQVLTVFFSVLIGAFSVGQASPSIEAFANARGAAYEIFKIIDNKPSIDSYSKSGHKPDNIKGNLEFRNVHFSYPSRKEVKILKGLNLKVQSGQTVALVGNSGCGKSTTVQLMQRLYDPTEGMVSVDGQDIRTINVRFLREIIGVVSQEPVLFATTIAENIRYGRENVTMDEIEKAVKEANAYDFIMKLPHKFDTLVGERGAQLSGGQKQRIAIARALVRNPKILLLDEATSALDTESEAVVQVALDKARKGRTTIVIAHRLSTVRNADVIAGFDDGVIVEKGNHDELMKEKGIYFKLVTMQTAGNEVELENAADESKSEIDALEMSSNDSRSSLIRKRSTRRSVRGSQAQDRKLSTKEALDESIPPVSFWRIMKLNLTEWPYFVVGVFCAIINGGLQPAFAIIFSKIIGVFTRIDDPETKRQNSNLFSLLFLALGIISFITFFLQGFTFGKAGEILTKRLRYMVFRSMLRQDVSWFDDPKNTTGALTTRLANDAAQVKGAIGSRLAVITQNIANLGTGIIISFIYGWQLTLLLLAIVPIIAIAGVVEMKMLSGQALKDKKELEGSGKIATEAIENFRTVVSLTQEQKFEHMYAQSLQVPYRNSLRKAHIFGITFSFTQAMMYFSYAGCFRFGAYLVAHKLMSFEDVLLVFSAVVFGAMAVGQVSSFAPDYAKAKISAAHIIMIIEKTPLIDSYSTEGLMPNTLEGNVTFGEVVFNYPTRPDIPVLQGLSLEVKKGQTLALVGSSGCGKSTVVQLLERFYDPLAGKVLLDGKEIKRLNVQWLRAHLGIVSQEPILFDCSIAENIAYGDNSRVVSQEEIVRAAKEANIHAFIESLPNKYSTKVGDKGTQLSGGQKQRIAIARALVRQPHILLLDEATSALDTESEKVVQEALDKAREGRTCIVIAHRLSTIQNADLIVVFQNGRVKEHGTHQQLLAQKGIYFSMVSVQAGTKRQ

## CCn1cc(-c2ccnc3[nH]c(-c4cccc(CN(C)C)c4)cc23)c(-c2ccc(NC(=O)N(C)C)cc2)n1 [GSK-1070916]
  EC50: 830 nM
